From patent publication US20050025847A1, “Microbicidal compositions and method of use” (Program for Appropriate Technology in Health, priority 2003, published 2005)

Columns and labels:
[1] = system: Microsporum canis; conditions: isolates of Microsporum canis; cited from earlier work
[2] = system: Epidermophyton floccosum; conditions: isolates of Epidermophyton floccosum; cited from earlier work
[3] = system: Trichophyton rubrum; conditions: isolates of Trichophyton rubrum; cited from earlier work
[4] = system: Candida albicans; conditions: isolates of Candida albicans; cited from earlier work
[5] = system: Trichophyton mentagrophytes; conditions: isolates of Trichophyton mentagrophytes; cited from earlier work
[6] = system: lactobacilli; assay: effect on lactobacilli; assay type: cell-based
Source text: (§1) A preferred microbicidal agent according to the present invention is bisabolol. In particular, alpha-bisabolol (levomenol) is a preferred microbicidal agent. Bisabolol is a naturally occurring unsaturated monocyclic sesquiterpene alcohol. Alpha-bisabolol is used in a wide range or cosmetic formulations as a skin conditioning agent at concentrations ranging from approximately 0.001% in lipstick to approximately 1% in underarm deodorants. Bisabolol has been used for cosmetic purposes in India and worldwide in skin, oropharyngeal, nasal and vaginal products such as douches up to concentrations of approximately 5%, but has not been used in the prevention or treatment of STIs and/or common vaginal diseases. Bisabolol is the main active principle of chamomile (Matricaria chamomilla) and up to approximately 50% of the essential oil of chamomile consists of alpha-bisabolol.

[7] = system: HIV; assay: inhibition of HIV infectivity; assay type: cell-based
[8] = oral and dermal toxicity, genotoxicity, reproductive/developmental toxicity, sensitization and photosensitization studies; conditions: oral, dermal, sensitization, photosensitization studies
Source text: as §1

| effect on lactobacilli ([6]; concentration 2 mg/ml) | effect on lactobacilli ([6]; concentration 10 mg/ml) | IC50, inhibition of HIV infectivity ([7]; mixed with the virus and cells) [mg/L] | IC50, inhibition of HIV infectivity ([7]; mixed with the virus for 5 minutes before washing) [mg/L] | SMILES | fungicidal activity in vitro [1] | fungicidal activity in vitro [2] | fungicidal activity in vitro [3] | fungicidal activity in vitro [4] | fungicidal activity in vitro [5] | anti-HIV activity [7] | inactivation of HIV ([7]; washed away after short-term treatment) | toxicity [8] |
| --- | --- | --- | --- | --- | --- | --- | --- | --- | --- | --- | --- | --- |
| – | – | – | – | Cc1cc(C2CCCCC2)n(O)c(=O)c1.NCCO [Ciclopirox Olamine, 6-Cyclohexyl-1-hydroxy-4-methyl-2-(1H)-pyridone ethanolamine salt] | exhibits fungicidal activity | exhibits fungicidal activity | exhibits fungicidal activity | exhibits fungicidal activity | exhibits fungicidal activity | – | – | – |
| no effect | no effect | 0.6 | 1 | CC(C)=CCCC(C)(O)C1CC=C(C)CC1 (stereo not drawn) [Bisabolol, 3-Cyclohexene-1-methanol, alpha,4-dimethyl-alpha-(4-methyl-3-pentenyl)] | – | – | – | – | – | very high anti-HIV activity | inactivates HIV | little toxicity |
